# From BindingDB's records for patent US20250066350 (Innovstone Therapeutics, 2025)
# Molecular target: Serine/threonine-protein kinase ATR (Homo sapiens, UniProt Q13535)
# Assay: ATR Enzyme Assay
# Description: I. Experimental Materials and Instruments1. ATR enzyme (Eurofins Pharma Discovery Services, 14-953M)2. GST-tagged P53 protein (Eurofins Pharma Discovery Services, 14-952M)3. 384-well plate (Geriner bio-one, 784075)4. U-bottom 96-well plate (Geriner bio-one, 651201)5. Anti-phospho-P53 protein antibody labeled with europium cryptate (cisbio, 61P08KAZ)6. Anti-GST antibody linked to d2 (cisbio, 61GSTDLB)7. ATP solution (Sigma, R0441)8. DTT (Sigma, D0632-259)9. HEPES (Sigma, 15630080)10. Microplate reader (Envision 2104 Multilabel Reader)II. Experimental Steps15 nM ATR enzyme, 80 nM P53 protein, 300 nM ATP (the final concentrations were 40 nM and 150 nM, respectively), and small molecule compounds of various concentrations (the final concentrations (nM) of the ten points were 2985.0, 895.5, 298.5, 110.56, 33.17, 11.06, 4.09, 1.23, 0.41 and 0.15, respectively, and the final dimethyl sulfoxide concentration was 0.498%) were mixed and incubated at room temperature for 90 minutes. 10 μL of 2× cocktail buffer was added to the mixture of ATR, compound and substrate in the assay plate (anti-phospho-p53-Eu and anti-GST-d2 were diluted in the assay buffer). The resulting mixture was centrifuged at 1000 rpm for 30 seconds, and incubated overnight at 4° C. in the dark (a total of 20 μl in each well). The FRET signal (endpoint) was measured in the Envision instrument (HTRF 665/612 ratio was calculated at 665 nm emission and 612 nm emission). Data were processed using GraphPad software.
# Sequence of Serine/threonine-protein kinase ATR (Q13535 whole entry): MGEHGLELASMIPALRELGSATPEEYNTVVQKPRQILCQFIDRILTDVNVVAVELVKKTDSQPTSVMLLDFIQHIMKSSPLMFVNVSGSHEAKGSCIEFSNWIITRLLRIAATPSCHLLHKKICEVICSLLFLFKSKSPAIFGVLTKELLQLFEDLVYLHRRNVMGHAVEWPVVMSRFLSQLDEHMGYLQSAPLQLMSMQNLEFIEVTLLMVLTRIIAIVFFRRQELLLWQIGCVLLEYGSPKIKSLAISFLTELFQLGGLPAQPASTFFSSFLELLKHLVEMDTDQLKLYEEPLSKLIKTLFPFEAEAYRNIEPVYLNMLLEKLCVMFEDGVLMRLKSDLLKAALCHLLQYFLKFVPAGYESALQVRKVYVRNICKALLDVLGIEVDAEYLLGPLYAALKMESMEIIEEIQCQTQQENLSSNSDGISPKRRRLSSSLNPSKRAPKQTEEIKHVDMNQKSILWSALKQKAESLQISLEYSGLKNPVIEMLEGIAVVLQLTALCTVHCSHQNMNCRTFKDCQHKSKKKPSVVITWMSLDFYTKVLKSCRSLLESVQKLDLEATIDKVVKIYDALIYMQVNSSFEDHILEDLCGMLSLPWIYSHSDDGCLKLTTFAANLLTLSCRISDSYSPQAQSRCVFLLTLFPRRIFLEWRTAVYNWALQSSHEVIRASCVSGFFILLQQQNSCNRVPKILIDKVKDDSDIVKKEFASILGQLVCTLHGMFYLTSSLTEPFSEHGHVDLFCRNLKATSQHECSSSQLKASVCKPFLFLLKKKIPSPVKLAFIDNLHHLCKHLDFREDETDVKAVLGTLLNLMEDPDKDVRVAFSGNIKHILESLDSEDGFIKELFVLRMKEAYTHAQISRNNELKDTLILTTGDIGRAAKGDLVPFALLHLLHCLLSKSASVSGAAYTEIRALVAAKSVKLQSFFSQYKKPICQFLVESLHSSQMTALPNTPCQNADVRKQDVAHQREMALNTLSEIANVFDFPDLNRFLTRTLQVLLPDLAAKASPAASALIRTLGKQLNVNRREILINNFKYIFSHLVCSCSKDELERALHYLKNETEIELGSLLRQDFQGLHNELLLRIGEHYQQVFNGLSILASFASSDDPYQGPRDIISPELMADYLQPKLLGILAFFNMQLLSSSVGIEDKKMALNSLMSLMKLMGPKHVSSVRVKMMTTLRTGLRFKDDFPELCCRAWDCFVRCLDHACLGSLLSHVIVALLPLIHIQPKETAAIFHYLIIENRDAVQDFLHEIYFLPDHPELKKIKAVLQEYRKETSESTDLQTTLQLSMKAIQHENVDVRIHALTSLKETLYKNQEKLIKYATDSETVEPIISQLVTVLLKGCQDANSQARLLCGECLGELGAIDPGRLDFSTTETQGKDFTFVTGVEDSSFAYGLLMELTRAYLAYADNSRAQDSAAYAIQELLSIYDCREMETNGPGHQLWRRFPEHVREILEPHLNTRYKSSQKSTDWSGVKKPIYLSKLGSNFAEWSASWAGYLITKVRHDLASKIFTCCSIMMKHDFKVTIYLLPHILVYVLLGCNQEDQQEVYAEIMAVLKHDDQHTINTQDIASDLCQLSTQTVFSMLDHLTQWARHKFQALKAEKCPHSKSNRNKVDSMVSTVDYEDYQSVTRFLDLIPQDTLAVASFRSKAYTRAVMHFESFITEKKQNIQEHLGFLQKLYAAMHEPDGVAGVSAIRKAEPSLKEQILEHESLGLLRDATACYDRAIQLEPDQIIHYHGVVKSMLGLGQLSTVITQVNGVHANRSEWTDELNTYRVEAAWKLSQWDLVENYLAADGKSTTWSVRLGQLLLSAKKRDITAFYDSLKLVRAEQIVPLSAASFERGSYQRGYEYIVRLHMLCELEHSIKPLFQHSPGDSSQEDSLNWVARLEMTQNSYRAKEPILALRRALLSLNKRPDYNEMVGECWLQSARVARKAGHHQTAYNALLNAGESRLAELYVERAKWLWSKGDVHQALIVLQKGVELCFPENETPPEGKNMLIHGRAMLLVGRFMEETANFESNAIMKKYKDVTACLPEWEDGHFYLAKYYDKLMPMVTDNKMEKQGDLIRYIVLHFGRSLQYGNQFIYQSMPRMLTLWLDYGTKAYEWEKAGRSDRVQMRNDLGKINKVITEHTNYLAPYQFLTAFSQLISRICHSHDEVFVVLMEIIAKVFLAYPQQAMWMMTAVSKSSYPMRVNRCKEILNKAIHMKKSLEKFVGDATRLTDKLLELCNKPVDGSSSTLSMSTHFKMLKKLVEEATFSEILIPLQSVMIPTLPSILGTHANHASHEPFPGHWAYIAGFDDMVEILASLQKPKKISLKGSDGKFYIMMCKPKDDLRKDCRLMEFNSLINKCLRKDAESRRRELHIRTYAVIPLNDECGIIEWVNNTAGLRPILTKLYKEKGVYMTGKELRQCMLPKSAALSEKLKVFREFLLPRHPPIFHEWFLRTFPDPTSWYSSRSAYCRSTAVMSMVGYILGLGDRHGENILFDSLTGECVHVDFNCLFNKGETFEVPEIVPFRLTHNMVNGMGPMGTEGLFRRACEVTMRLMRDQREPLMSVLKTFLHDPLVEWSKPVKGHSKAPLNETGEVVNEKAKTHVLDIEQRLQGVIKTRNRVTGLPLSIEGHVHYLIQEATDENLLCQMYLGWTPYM
row,SMILES,IC50
1,"C[C@@H]1COCCN1c1cc(-c2ccc(N3CCCCCC3=O)cc2)c2cnn(-c3cc[nH]n3)c2n1 [US20250066350, Example 153]",< 0.01 µM
2,"C[C@@H]1COCCN1c1cc(-c2ccc(NC(=O)C3CCOCC3)cc2)c2cnn(-c3cc[nH]n3)c2n1 [US20250066350, Example 155]",< 0.01 µM
3,"C[C@@H]1COCCN1c1cc(-c2ccc(NC(=O)C3CCNC3)cc2)c2cnn(-c3cc[nH]n3)c2n1 (stereo partly specified) [US20250066350, Example 157]",< 0.01 µM
4,"C[C@@H]1COCCN1c1cc(-c2ccc(NC(=O)C3CCCNC3)cc2)c2cnn(-c3cc[nH]n3)c2n1 (stereo partly specified) [US20250066350, Example 159]",< 0.01 µM
5,"CC(=O)N1CCC(C(=O)Nc2ccc(-c3cc(N4CCOC[C@H]4C)nc4c3cnn4-c3cc[nH]n3)cc2)C1 (stereo partly specified) [US20250066350, Example 161]",< 0.01 µM
6,"C[C@@H]1COCCN1c1cc(-c2ccc(NC(=O)c3ccccc3)cc2)c2cnn(-c3cc[nH]n3)c2n1 [US20250066350, Example 163]",< 0.01 µM
7,"C[C@@H]1COCCN1c1cc(-c2ccc(NC(=O)c3ccncn3)cc2)c2cnn(-c3cc[nH]n3)c2n1 [US20250066350, Example 165]",< 0.01 µM
8,"C[C@@H]1COCCN1c1cc(-c2ccc(N3CCCCC3=O)nc2)c2cnn(-c3cc[nH]n3)c2n1 [US20250066350, Example 167]",< 0.01 µM
9,"C[C@@H]1COCCN1c1cc(-c2ccc(N3CCCCC3=O)c(C#N)c2)c2cnn(-c3cc[nH]n3)c2n1 [US20250066350, Example 169]",< 0.01 µM
10,"C[C@@H]1COCCN1c1cc(-c2ccc(N3CCCCC3=O)c(F)c2)c2cnn(-c3cc[nH]n3)c2n1 [US20250066350, Example 171]",< 0.01 µM
11,"C[C@@H]1COCCN1c1cc(-c2ccc3c(c2)CCN3C(=O)c2ccncc2)c2cnn(-c3cc[nH]n3)c2n1 [US20250066350, Example 183]",< 0.01 µM
12,"C[C@@H]1COCCN1c1cc(-c2ccc(NC(=O)NC34CC5CC(CC(C5)C3)C4)cc2)c2cnn(-c3cc[nH]n3)c2n1 [US20250066350, Example 187]",< 0.01 µM
13,"C[C@@H]1COCCN1c1cc(-c2ccc(NC(=O)c3cccnc3)cc2F)c2cnn(-c3cc[nH]n3)c2n1 [US20250066350, Example 195]",< 0.01 µM
14,"C[C@@H]1COCCN1c1cc(-c2ccc(N3CCCCCC3=O)cc2F)c2cnn(-c3cc[nH]n3)c2n1 [US20250066350, Example 197]",< 0.01 µM
15,"C[C@@H]1COCCN1c1cc(-c2ccc(N3CC4CCC(O4)C3=O)cc2F)c2cnn(-c3cc[nH]n3)c2n1 (stereo partly specified) [US20250066350, Example 199]",< 0.01 µM
16,"C[C@@H]1COCCN1c1cc(-c2ccc(NC(=O)N3CCCC3)cc2)c2cnn(-c3cc[nH]n3)c2n1 [US20250066350, Example 207]",< 0.01 µM
17,"C[C@@H]1COCCN1c1cc(C#CC2CCCNC2)c2cnn(-c3ccn[nH]3)c2n1 (stereo partly specified) [US20250066350, Example 209]",< 0.01 µM
18,"C[C@@H]1COCCN1c1cc(-c2ccc(NC(=O)C3CCN(C)C3)cc2)c2cnn(-c3cc[nH]n3)c2n1 (stereo partly specified) [US20250066350, Example 213]",< 0.01 µM
19,"CNC(=O)N(C)c1ccc(-c2cc(N3CCOC[C@H]3C)nc3c2cnn3-c2cc[nH]n2)cc1 [US20250066350, Example 215]",< 0.01 µM
20,"C[C@@H]1COCCN1c1cc(-c2ccc(NC(=O)C(F)F)cc2)c2cnn(-c3cc[nH]n3)c2n1 [US20250066350, Example 217]",< 0.01 µM
21,"C[C@@H]1COCCN1c1cc(-c2ccc(N3CCCCC3=O)cc2C(F)(F)F)c2cnn(-c3cc[nH]n3)c2n1 [US20250066350, Example 242]",< 0.01 µM
22,"CC1CCCN1C(=O)Nc1ccc(-c2cc(N3CCOC[C@H]3C)nc3c2cnn3-c2cc[nH]n2)c(F)c1 (stereo partly specified) [US20250066350, Example 252]",< 0.01 µM
23,"C[C@@H]1COCCN1c1cc(-c2ccc(-c3ccnn3C)cc2F)c2cnn(-c3cc[nH]n3)c2n1 [US20250066350, Example 258]",< 0.01 µM
24,"C[C@@H]1COCCN1c1cc(-c2cc(C#N)c(N3CCCCC3=O)cc2F)c2cnn(-c3cc[nH]n3)c2n1 [US20250066350, Example 259]",< 0.01 µM

# Other lines, results leading:
row,IC50,SMILES
1,< 0.01 µM,"Cc1[nH]nc(C(F)(F)F)c1-c1cc(N2CCOC[C@H]2C)nc2c1cnn2-c1cc[nH]n1 [US20250066350, Example 1]"
2,< 0.01 µM,"C[C@@H]1COCCN1c1cc(C2(O)CCC3(CC2)CO3)c2cnn(-c3cc[nH]n3)c2n1 (stereo partly specified) [US20250066350, Example 2]"
3,< 0.01 µM,"Cc1nn(C2CCNCC2)c(C(F)(F)F)c1-c1cc(N2CCOC[C@H]2C)nc2c1cnn2-c1cc[nH]n1 [US20250066350, Example 3]"
4,< 0.01 µM,"Cc1c(-c2cc(N3CCOC[C@H]3C)nc3c2cnn3-c2cc[nH]n2)c(C(F)(F)F)nn1C1CCNCC1 [US20250066350, Example 4]"
5,< 0.01 µM,"COCC#Cc1cc(N2CCOC[C@H]2C)nc2c1cnn2-c1cc[nH]n1 [US20250066350, Example 5]"
6,< 0.01 µM,"C[C@@H]1COCCN1c1cc(C#CC2(O)CCCCC2)c2cnn(-c3cc[nH]n3)c2n1 [US20250066350, Example 6]"
7,< 0.01 µM,"C[C@@H]1COCCN1c1cc(-c2ccc(N3CCCCC3=O)cc2)c2cnn(-c3cc[nH]n3)c2n1 [US20250066350, Example 7]"
8,< 0.01 µM,"C[C@@H]1COCCN1c1cc(C2=CCCOC2)c2cnn(-c3cc[nH]n3)c2n1 [US20250066350, Example 8]"
9,< 0.01 µM,"Cc1ccc(-c2cc(N3CCOC[C@H]3C)nc3c2cnn3-c2cc[nH]n2)cn1 [US20250066350, Example 9]"
10,< 0.01 µM,"C[C@@H]1COCCN1c1cc(C#CC2(O)CCC3(CC2)CC3)c2cnn(-c3ccn[nH]3)c2n1 [US20250066350, Example 10]"
11,< 0.01 µM,"C[C@@H]1COCCN1c1cc(-c2ccnc3[nH]ccc23)c2cnn(-c3cc[nH]n3)c2n1 [US20250066350, Example 11]"
12,< 0.01 µM,"C[C@@H]1COCCN1c1cc(C2CCCOC2)c2cnn(-c3cc[nH]n3)c2n1 (stereo partly specified) [US20250066350, Example 13]"
13,< 0.01 µM,"C[C@@H]1COCCN1c1cc(-c2ccc(N3CC4(COC4)C3)cc2)c2cnn(-c3cc[nH]n3)c2n1 [US20250066350, Example 15]"
14,< 0.01 µM,"C[C@@H]1COCCN1c1cc(C#CC(C)(C)O)c2cnn(-c3cc[nH]n3)c2n1 [US20250066350, Example 16]"
15,< 0.01 µM,"C[C@@H]1COCCN1c1cc(-c2ccc(N3CC4CCC(O4)C3=O)cc2)c2cnn(-c3cc[nH]n3)c2n1 (stereo partly specified) [US20250066350, Example 65]"
16,< 0.01 µM,"C[C@@H]1COCCN1c1cc(-c2ccc(NC(=O)c3cccc(S(C)(=O)=O)c3)cc2)c2cnn(-c3cc[nH]n3)c2n1 [US20250066350, Example 145]"
17,< 0.01 µM,"CCC(CC)C(=O)Nc1ccc(-c2cc(N3CCOC[C@H]3C)nc3c2cnn3-c2cc[nH]n2)cc1 [US20250066350, Example 151]"
